Experiment [1] has as its target T1, Replicase polyprotein 1ab (Severe acute respiratory syndrome coronavirus 2, UniProt P0DTD1). The experiment can be described thus: Functional biochemical assay to identify treatments for viral infectious disease that targets SARS-COV-2 nsp3 macrodomain, whereby the mechanism of action inhibits ADP-Ribose hydrolase activity. Utilizing an enzymatic assay to monitor the conversion of alpha-NAD+ to ADP-Ribose and nicotinamide. ADP-ribose was quantified by LC-MS/MS after precipitation of proteins.

Experiment [2] deals with T1, Replicase polyprotein 1ab. The experiment in a line: Functional biochemical assay to identify treatments for viral infectious disease that targets SARS-COV-2 nsp3 macrodomain, whereby the mechanism of action displaces an ADP-Ribose modified peptide from the binding site. Utilizing a time-resolved fluorescence method to measure binding by reading the emitted fluorescence intensity in two wavelengths.

By IC50 is commonly meant the concentration that gives 50% inhibition.

Several values for one entry are separate records, joined by “and”; a condition that tells them apart may be missing. Identical values can stand only once.

Turning to `Cn1ncc(-c2cc3c(N[C@@H](c4ccc5c(n4)OCCO5)C(C)(C)C)ncnc3[nH]2)c1C#N`, the IC50 in experiment [1] is 133 nM and 191 nM and 235 nM; in experiment [2], 46 nM and 30 nM (2×) and 20 nM. `Cc1nn(C)cc1-c1cc2c(N[C@H](c3ccc4c(c3)S(=O)(=O)CCC4)C(C)C)ncnc2[nH]1`: the IC50 in experiment [1] was 322 nM and 241 nM and 288 nM; in experiment [2], 28 nM (3×) and 14 nM and 32 nM and 13 nM and 24 nM and 36 nM and 12 nM and 11 nM.

With `CC(C)[C@@H](Nc1ncnc2[nH]c(C(=O)N[C@@H]3CCN(C)C3)cc12)c1ccc2c(c1)S(=O)(=O)CCC2`, the IC50 in experiment [1] is 479 nM and 316 nM and 454 nM; in experiment [2], 65 nM and 66 nM and 72 nM and 58 nM. Consider `COc1ccc([C@H](Cc2nnn[nH]2)NC(=O)c2ncnc3[nH]ccc23)cc1`, for which the 50% inhibitory concentration (IC50) in experiment [1] was 2340 nM and 1490 nM and 1610 nM; in experiment [2], 349 nM and 319 nM. Regarding `CNCc1cc(-c2cc3c(N[C@@H](c4ccc5c(c4)S(=O)(=O)CCC5)C(C)C)ncnc3[nH]2)co1`, the IC50 in experiment [1] was 289 nM and 396 nM and 533 nM; in experiment [2], 25 nM and 41 nM and 22 nM and 19 nM (2×) and 12 nM. In the case of `CC(C)[C@@H](Nc1ncnc2[nH]ccc12)c1ccc2c(c1)NC(=O)CO2`, the concentration for half-maximal inhibition (IC50) in experiment [1] was 2960 nM; in experiment [2], 700 nM and 722 nM and 396 nM and 378 nM. On to `C[C@H](C(=O)O)[C@@H](NC(=O)c1ncnc2[nH]ccc12)c1ccc(Br)cc1`, for which the IC50 in experiment [1] is 1340 nM and 1900 nM and 1800 nM; in experiment [2], 794 nM and 622 nM and 340 nM. `CNC(=O)Cn1cc(-c2cc3c(N[C@@H](c4ccc5c(c4)S(=O)(=O)CCC5)C(C)C)ncnc3[nH]2)cn1`: the IC50 in experiment [1] is 204 nM and 197 nM and 288 nM; in experiment [2] it was 35 nM and 19 nM and 30 nM and 18 nM and 16 nM and 15 nM and 10 nM. Regarding `CC(C)[C@@H](Nc1ncnc2[nH]c(-c3cnn(C)c3C#N)cc12)c1ccc2c(n1)OCCO2`, the IC50 is 283 nM and 156 nM and 312 nM in experiment [1]; 68 nM and 74 nM and 40 nM and 29 nM and 59 nM and 67 nM in experiment [2]. For the molecule `CC(C)[C@H](Nc1ncnc2[nH]c(-c3cnn(C)c3C#N)cc12)c1ccc2c(n1)OCCO2`, the concentration for half-maximal inhibition (IC50) was more than 4000 nM in experiment [1]; 19300 nM and 19100 nM and 30800 nM and 19000 nM in experiment [2]. Turning to `CC(C)[C@H](Nc1ncnc2[nH]ccc12)c1ccc2c(c1)S(=O)(=O)CCC2`, the IC50 in experiment [1] was 803 nM and 194 nM and 512 nM; in experiment [2], 93 nM and 138 nM and 85 nM. For `CC(C)[C@@H](Nc1ncnc2[nH]c(-c3cnn(C)c3)cc12)c1ccc2c(c1)S(=O)(=O)CCC2`, the IC50 in experiment [1] was 328 nM and 264 nM; in experiment [2], 36 nM and 54 nM and 19 nM and 34 nM (2×) and 17 nM and 29 nM and 27 nM and 35 nM and 15 nM. `CC(C)(C)[C@@H](Nc1ncnc2[nH]c(-c3cnn(CC(N)=O)c3)cc12)c1ccc2c(n1)OCCO2`: the IC50 in experiment [1] is 203 nM; in experiment [2], 82 nM and 64 nM and 54 nM. Turning to `CNC(=O)c1c[nH]c2ncnc(N[C@H](c3ccc4c(c3)S(=O)(=O)CCC4)C(C)C)c12`, the IC50 in experiment [1] is 246 nM; in experiment [2], 120 nM and 110 nM. The molecule `CC(C)[C@H](Nc1ncnc2ccoc12)c1ccc2c(c1)S(=O)(=O)CCC2` showed an IC50 in experiment [2] of more than 99500 nM.

`CCNC(=O)c1cc2c(N[C@H](c3ccc4c(n3)S(=O)(=O)CCO4)C(C)C)ncnc2[nH]1`: in experiment [2], the IC50 is 110 nM. Still for that read-out and setting: as for `CC(C)[C@H](Nc1ncncc1-c1nc[nH]n1)c1ccc2c(c1)S(=O)(=O)CCC2`, the figure is more than 99500 nM; as for `CC(C)[C@@H](Oc1ncnc2[nH]ccc12)c1ccc2c(c1)S(=O)(=O)CCC2`, 6050 nM; as for `CC(C)[C@H](Nc1ncnc2c1CCN2)c1ccc2c(c1)S(=O)(=O)CCC2`, 52100 nM. Turning to `CC(C)[C@H](Nc1ncnc2c1NCCO2)c1ccc2c(c1)S(=O)(=O)CCC2`, in experiment [2], the IC50 was more than 99500 nM. Same read-out and setting: as for `CC(C)[C@@H](Nc1ncncc1N1CCOCC1)c1ccc2c(c1)S(=O)(=O)CCC2`, the figure is more than 99500 nM; as for `CC(C)[C@@H](Nc1ncnc2[nH]c(Br)cc12)c1ccc2c(c1)S(=O)(=O)CCC2`, 336 nM. Still for that read-out and setting: as for `CC(C)[C@H](Nc1cc(-c2nc[nH]n2)ncn1)c1ccc2c(c1)S(=O)(=O)CCC2`, the figure is more than 99500 nM. Same read-out and setting: the result for `CNCc1cc(-c2cc3c(N[C@H](c4ccc5c(c4)S(=O)(=O)CCO5)C(C)C)ncnc3[nH]2)co1` reads 57 nM. In the case of `COc1ncnc(N[C@H](c2ccc3c(c2)S(=O)(=O)CCC3)C(C)C)c1F`, the IC50 in experiment [2] is more than 99500 nM. On the same count and under the same terms, the result for `CC(C)[C@H](Nc1ncnc2cn[nH]c12)c1ccc2c(c1)S(=O)(=O)CCC2` reads more than 99500 nM; that for `CCNC(=O)c1cc2c(N[C@H](c3ccc4c(n3)S(=O)(=O)CCC4)C(C)C)ncnc2[nH]1`, 119 nM; that for `CC(C)[C@H](Nc1ncnc2[nH]nnc12)c1ccc2c(c1)S(=O)(=O)CCC2`, more than 99500 nM.

For `CC(C)[C@@H](Oc1ncnc2[nH]ccc12)c1ccc2c(c1)OCCO2`, the IC50 in experiment [2] was more than 99500 nM. Take `CC(C)[C@H](Nc1ncncc1N1CCNCC1)c1ccc2c(c1)S(=O)(=O)CCC2`: the IC50 in experiment [2] was more than 99500 nM. Same read-out and setting: as for `CC(C)[C@H](Nc1nccc2[nH]ccc12)c1ccc2c(c1)S(=O)(=O)CCC2`, the figure is more than 99500 nM. The molecule `CC(C)[C@H](Nc1ncnc2nccnc12)c1ccc2c(c1)S(=O)(=O)CCC2` had an IC50 in experiment [2] of more than 99500 nM.

The values above are taken from ChEMBL document CHEMBL5441456, “ASAP - SARS-CoV-2 nsp3 macrodomain dose response” (2024).
